The values below come from publication PMC8048867 (Chemmedchem, 2020).

The target of assay [1] is T1, recombinant human meprin β (Homo sapiens, UniProt Q16820).
T1 sequence (Q16820 62-701): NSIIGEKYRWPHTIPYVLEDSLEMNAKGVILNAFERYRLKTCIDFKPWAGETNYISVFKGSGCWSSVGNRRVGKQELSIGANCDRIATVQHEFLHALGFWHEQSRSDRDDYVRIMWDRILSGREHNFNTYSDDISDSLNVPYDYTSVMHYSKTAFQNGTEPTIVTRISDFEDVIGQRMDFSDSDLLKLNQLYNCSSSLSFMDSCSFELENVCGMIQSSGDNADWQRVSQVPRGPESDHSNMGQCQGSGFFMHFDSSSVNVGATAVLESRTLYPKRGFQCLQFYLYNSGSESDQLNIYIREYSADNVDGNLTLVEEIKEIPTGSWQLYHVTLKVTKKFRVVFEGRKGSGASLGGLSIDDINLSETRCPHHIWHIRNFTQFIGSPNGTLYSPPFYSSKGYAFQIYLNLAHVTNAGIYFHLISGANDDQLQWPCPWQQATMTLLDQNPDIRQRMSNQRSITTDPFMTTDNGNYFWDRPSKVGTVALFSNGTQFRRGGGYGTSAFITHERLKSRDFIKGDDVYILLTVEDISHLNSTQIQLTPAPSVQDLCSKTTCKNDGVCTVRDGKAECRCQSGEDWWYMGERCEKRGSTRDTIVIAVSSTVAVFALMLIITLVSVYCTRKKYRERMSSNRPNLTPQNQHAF
As to the kind of experiment: meprin β inhibition, quenched fluorogenic peptide substrate assay. Format: biochemical.

The target of assay [2] is T2, recombinant human meprin α (Homo sapiens, UniProt Q16819).
T2 sequence (Q16819 66-746): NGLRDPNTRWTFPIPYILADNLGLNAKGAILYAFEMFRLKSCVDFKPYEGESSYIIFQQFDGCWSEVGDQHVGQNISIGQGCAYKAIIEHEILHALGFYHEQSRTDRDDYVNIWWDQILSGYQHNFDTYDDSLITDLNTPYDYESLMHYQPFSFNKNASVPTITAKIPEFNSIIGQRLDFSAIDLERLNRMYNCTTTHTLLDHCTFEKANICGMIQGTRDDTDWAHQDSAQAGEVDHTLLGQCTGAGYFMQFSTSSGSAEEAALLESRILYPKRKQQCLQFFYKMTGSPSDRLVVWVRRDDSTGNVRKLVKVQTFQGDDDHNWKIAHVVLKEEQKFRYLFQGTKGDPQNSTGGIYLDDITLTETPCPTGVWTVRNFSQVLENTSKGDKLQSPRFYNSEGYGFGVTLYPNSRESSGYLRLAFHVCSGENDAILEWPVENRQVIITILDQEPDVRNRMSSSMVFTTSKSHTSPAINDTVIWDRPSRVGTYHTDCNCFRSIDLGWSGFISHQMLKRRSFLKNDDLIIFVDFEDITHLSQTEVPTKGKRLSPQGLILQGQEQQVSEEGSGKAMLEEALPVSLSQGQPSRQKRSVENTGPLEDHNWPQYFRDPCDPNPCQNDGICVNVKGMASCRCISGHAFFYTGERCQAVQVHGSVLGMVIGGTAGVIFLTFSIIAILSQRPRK
The assay can be described thus: meprin α inhibition, quenched fluorogenic peptide substrate assay. Format: biochemical. To be noted: for SF: selectivity factor (K i app meprin β/K i app meprin α): meprin α over meprin β.

A further assay deals with T3, mouse ovastacin (Mus musculus, UniProt Q6HA09).
T3 sequence (Q6HA09 86-435 limits assumed): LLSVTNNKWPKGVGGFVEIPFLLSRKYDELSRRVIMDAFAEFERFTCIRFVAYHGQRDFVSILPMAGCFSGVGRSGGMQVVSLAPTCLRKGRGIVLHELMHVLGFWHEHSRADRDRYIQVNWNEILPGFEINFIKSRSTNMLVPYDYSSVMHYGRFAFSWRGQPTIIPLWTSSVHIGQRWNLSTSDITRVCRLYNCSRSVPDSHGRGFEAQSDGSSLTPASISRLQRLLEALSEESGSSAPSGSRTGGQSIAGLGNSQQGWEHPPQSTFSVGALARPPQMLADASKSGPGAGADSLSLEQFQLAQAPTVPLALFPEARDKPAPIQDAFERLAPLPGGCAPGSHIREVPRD
The assay can be described thus: ovastacin inhibition, fluorogenic enzyme activity assay.

The target in a further assay is T4, ADAM10 (Homo sapiens, UniProt O14672).
T4 sequence (O14672 214-748): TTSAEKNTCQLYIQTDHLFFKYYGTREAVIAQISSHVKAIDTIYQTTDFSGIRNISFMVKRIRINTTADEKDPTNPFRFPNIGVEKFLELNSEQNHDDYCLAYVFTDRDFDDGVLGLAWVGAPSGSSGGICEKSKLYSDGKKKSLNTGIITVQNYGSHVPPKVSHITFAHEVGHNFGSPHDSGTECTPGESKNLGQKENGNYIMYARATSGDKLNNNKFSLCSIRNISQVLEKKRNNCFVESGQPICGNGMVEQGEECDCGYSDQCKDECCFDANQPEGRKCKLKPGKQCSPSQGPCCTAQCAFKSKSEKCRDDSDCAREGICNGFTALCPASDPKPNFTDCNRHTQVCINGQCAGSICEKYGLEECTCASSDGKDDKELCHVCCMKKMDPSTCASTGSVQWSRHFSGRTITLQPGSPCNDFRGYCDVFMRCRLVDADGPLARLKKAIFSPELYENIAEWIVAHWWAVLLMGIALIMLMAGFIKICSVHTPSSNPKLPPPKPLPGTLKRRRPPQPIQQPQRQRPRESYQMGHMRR
As to the kind of experiment: off-target proteinase inhibition ADAM10. The format is biochemical. Particulars: read-out: Relative enzyme activity ADAM10.

A further assay deals with MMP13 (Homo sapiens, UniProt P45452). As to the kind of experiment: off-target proteinase inhibition MMP13. To be noted: read-out: Relative enzyme activity MMP13. The format is biochemical.
Another assay concerns the target MMP9 (Homo sapiens, UniProt P14780). The assay can be described thus: off-target proteinase inhibition MMP9. The format is biochemical. Particulars: read-out: Relative enzyme activity MMP9.
For another assay, the target named is ADAM17 (Homo sapiens, UniProt P78536). The assay can be described thus: off-target proteinase inhibition ADAM17. The format is biochemical. To be noted: read-out: Relative enzyme activity ADAM17.
ADAM17, sequence (P78536 215-824): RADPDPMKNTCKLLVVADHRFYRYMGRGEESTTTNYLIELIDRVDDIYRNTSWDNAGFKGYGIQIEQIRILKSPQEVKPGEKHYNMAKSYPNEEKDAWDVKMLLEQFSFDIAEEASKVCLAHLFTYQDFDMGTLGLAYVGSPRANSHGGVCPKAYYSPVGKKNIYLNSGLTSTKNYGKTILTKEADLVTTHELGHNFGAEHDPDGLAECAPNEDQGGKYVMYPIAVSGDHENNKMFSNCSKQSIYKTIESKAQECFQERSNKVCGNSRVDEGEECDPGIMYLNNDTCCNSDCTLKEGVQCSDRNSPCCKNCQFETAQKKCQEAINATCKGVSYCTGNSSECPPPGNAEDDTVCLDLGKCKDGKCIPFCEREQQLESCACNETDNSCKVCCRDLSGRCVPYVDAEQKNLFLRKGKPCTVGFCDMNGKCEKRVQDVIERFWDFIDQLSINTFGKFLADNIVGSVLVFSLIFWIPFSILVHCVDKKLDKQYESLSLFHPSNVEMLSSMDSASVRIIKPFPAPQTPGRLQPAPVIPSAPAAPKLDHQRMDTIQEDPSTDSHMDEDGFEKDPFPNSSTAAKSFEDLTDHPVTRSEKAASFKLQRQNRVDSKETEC
The target of another assay is T5, MMP2 (Homo sapiens, UniProt P08253).
T5 sequence (P08253 110-660): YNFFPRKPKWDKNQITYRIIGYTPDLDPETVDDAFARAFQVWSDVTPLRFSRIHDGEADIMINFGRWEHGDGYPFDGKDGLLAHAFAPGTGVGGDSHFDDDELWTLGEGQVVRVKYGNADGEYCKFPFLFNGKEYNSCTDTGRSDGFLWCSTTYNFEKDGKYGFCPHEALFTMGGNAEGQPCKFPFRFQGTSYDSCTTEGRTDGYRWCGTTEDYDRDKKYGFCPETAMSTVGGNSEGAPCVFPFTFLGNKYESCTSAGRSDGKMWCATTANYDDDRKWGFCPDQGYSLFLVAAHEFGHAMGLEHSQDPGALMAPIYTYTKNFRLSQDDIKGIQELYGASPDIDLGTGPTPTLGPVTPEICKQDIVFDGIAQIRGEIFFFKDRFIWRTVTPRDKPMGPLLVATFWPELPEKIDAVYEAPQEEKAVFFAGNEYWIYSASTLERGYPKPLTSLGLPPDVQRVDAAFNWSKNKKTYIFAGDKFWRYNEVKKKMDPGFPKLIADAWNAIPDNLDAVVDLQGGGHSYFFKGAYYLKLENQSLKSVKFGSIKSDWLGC
The assay can be described thus: off-target proteinase inhibition MMP2. Format: biochemical. Particulars: read-out: Relative enzyme activity MMP2.

MMP9, sequence (P14780 107-707 limits assumed): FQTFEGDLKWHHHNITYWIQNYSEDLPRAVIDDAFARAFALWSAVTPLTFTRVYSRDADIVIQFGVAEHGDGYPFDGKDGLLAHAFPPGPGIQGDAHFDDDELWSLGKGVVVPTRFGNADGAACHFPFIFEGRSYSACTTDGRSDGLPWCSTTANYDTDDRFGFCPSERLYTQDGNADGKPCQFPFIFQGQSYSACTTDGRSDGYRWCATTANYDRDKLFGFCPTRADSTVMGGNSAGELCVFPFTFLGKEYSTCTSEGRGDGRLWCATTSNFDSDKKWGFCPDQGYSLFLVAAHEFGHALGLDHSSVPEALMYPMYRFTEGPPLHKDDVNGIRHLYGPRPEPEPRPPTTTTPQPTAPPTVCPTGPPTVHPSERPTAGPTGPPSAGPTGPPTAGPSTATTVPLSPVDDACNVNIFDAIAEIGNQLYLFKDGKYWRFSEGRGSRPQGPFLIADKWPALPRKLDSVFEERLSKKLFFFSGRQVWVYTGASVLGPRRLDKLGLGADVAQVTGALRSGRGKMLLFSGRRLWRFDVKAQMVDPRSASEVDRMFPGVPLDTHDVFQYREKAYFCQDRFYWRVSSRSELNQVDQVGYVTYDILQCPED

Regarding `O=C(Cc1c(-c2ccccc2)[nH]c2ccccc12)NO` [4 e, 2‐(2‐Phenyl‐1H‐indol‐3‐yl)ethanehydroxamic acid], the Ki in assay [1] stood at 1.18 µM. In assay [2], the Ki is 82 nM and the “SF: selectivity factor (K i app meprin β/K i app meprin α)” value (“SF: selectivity factor” below) was found to be 14.
For the compound `O=C(CCn1c(-c2ccccc2)nnc1-c1ccccc1)NO` [2 h, 3‐(3,5‐Diphenyl‐1,2,4‐triazol‐4‐yl)propanehydroxamic acid], the Ki in assay [1] was found to be 42.3 µM. Moreover, at mouse ovastacin, the Ki came out at 31800 nM, the “SF Meprin α: selectivity factor (K i app ovastacin/K i app meprin α)” value (“SF Meprin α: selectivity factor” for short) was 104 and the “SF Meprin β: selectivity factor (K i app ovastacin/K i app meprin β)” value (from here on “SF Meprin β: selectivity factor”) came out at 0.8. Further, in assay [2], the inhibition constant Ki was determined as 306 nM and the “SF: selectivity factor” value worked out at 138.
`O=C(Cn1nc(-c2ccccc2)cc1-c1ccccc1)NO` [3 a, 2‐(3,5‐Diphenylpyrazol‐1‐yl)ethanehydroxamic acid]: the Ki in assay [1] is 10.4 µM. Further, on mouse ovastacin, the Ki amounted to 1050 nM, the “SF Meprin α: selectivity factor” value came to 4 and the “SF Meprin β: selectivity factor” value is reported as 0.1. In assay [2], the Ki came out at 256 nM and the “SF: selectivity factor” value is on record as 41.
Turning to `CCCCC[C@H](CC(=O)NO)C(=O)N[C@H](C(=O)N1CCC[C@H]1CO)C(C)C` [Actinonin, reference compound], the Ki was 0.219 µM in assay [1] and 8 nM in assay [2]. Further, in assay [2], the “SF: selectivity factor” value amounted to 27.
With `O=C(CCn1c(-c2ccccc2)nc2ccccc21)NO` [4 d, 3‐(2‐Phenylbenzimidazol‐1‐yl)propanehydroxamic acid], in assay [1], the inhibitory constant (Ki) was 27.9 µM. On mouse ovastacin, the affinity, expressed as Ki, was 9800 nM; the “SF Meprin α: selectivity factor” value came out at 9.5; the “SF Meprin β: selectivity factor” value is recorded as 0.4. In assay [2], the Ki stood at 1030 nM and the “SF: selectivity factor” value came to 27.
Take `O=C(Cc1c2ccccc2nn1-c1ccccc1)NO` [4 h, 2‐(2‐Phenylindazol‐3‐yl)ethanehydroxamic acid]: in assay [1], the Ki is 3.36 µM. In addition, in assay [2], the inhibitory constant (Ki) was 273 nM and the “SF: selectivity factor” value was found to be 12.
As for `O=C(CCn1nc(-c2ccccc2)cc1-c1ccccc1)NO` [3 b, 3‐(3,5‐Diphenylpyrazol‐1‐yl)propanehydroxamic acid], the Ki in assay [1] turned out to be 15.4 µM. Moreover, at mouse ovastacin, the Ki is 1100 nM, the “SF Meprin α: selectivity factor” value amounted to 3 and the “SF Meprin β: selectivity factor” value is given as 0.1. Moreover, in assay [2], the Ki is 406 nM and the “SF: selectivity factor” value is listed as 38.
Turning to `O=C(Cn1c(-c2ccccc2)ccc1-c1ccccc1)NO` [2 a, 2‐(2,5‐Diphenylpyrrol‐1‐yl)ethanehydroxamic acid], the Ki came to 4.31 µM in assay [1] and 20 nM in assay [2]. Besides, the remaining activity at 10 µM on ADAM10 turned out to be 82%; at MMP13 it was 79%; at MMP9, 92%; at ADAM17 it was 82%; at MMP2, 83%. The remaining activity at 200 µM at ADAM10 was determined as 29%; at MMP13 it was 5%; on MMP9, 1%; at ADAM17, 25%; on MMP2, 1%. Further, in assay [2] (compared to 1 d), the “fold improvement in potency against meprin α compared to amine 1 d” value is recorded as about 400 fold. Moreover, the “SF: selectivity factor” value in assay [2] worked out at 216.
Turning to `O=C(Cc1c(-c2ccccc2)ncn1-c1ccccc1)NO` [2 i, 2‐(3,5‐Diphenylimidazol‐4‐yl)ethanehydroxamic acid], the Ki in assay [1] was found to be 0.443 µM. In assay [2], the Ki turned out to be 2 nM and the “SF: selectivity factor” value came out at 222.
The matching figures for `O=C(CCn1c(-c2ccccc2)ccc1-c1ccccc1)NO` [2 b, 3‐(2,5‐Diphenylpyrrol‐1‐yl)propanehydroxamic acid]: 15 µM, 736 nM and 20.
For `O=C(Cc1c(-c2ccccc2)nnn1-c1ccccc1)NO` [2 j, 2‐(3,5‐Diphenyl‐1,2,3‐triazol‐4‐yl)ethanehydroxamic acid], in assay [1], the Ki is 1.45 µM. Moreover, in assay [2], the Ki was 9 nM and the “SF: selectivity factor” value amounted to 161.
As for `O=C(CCn1c(-c2ccccc2)cc2ccccc21)NO` [4 b, 3‐(2‐Phenylindol‐1‐yl)propanehydroxamic acid], the Ki in assay [1] was 17 µM. On mouse ovastacin, the Ki turned out to be 1300 nM, the “SF Meprin α: selectivity factor” value was found to be 3.1 and the “SF Meprin β: selectivity factor” value came out at 0.1. In assay [2], the Ki turned out to be 414 nM and the “SF: selectivity factor” value amounted to 41.
For `O=C(Cn1c(-c2ccccc2)nc2cccnc21)NO` [4 f, 2‐(2‐Phenylimidazo[4,5‐b]pyridin‐3‐yl)ethanehydroxamic acid], the Ki in assay [1] stood at 4.56 µM. For the same compound, in assay [2], the Ki came out at 262 nM and the “SF: selectivity factor” value is 17.
The matching figures for `O=C(Cn1c(-c2ccccc2)nc2ncccc21)NO` [4 g, 2‐(2‐Phenylimidazo[4,5‐b]pyridin‐1‐yl)ethane‐hydroxamic acid]: 4.17 µM, 1480 nM and 3.

As a reminder, the Ki is a dissociation constant, usually derived from enzyme kinetics or from competition with a known ligand.
